Values after ≈ are worked out from the molar mass of the structure shown. Values joined by “and” are separate entries in the source; they are usually repeats but may differ in a detail not shown here. Equal values may be shown once.
Legend:
[1] = target: T1, human STING (Homo sapiens, UniProt Q86WV6); assay: ISG54 luciferase reporter assay in HepG2/STING/ISG54Luc cells; type: cell-based
[2] = tested on: cGAS-STING pathway; assay: ISG54 luciferase reporter assay in HepAD38/cGAS-STING/ISG54Luc cells; type: cell-based, human; details: 4 h treatment
[3] = target: human STING with truncation of carboxyl-terminal domain (CTD) (Homo sapiens, UniProt Q86WV6); assay: ISG54 luciferase reporter assay in HepAD38/cGAS-STINGΔC/ISG54Luc cells; type: cell-based; details: 4 h treatment
[4] = tested on: HepAD38/cGAS-STING/ISG54Luc cells; type: cell-based; details: human, 4 h
[5] = target: T1, human STING; assay: Cytokine mRNA induction; type: cell-based; details: 6 h, qRT-PCR
[6] = target: T2, mouse STING (Mus musculus, UniProt Q3TBT3); assay: IFN-β mRNA induction; type: cell-based; details: HepG2/mSTING cells, 6 h, qRT-PCR
T2 sequence (Q3TBT3 1-378): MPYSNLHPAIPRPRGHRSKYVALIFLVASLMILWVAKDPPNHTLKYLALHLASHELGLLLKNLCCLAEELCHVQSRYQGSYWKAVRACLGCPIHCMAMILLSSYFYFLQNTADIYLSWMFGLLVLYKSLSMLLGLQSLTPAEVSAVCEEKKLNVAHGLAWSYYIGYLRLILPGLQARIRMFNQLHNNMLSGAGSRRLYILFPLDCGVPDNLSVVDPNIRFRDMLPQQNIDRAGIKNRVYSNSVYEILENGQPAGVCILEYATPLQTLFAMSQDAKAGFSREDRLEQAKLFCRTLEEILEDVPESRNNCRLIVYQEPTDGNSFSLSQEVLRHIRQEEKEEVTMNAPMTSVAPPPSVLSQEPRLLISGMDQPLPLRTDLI

[7] = target: T1, human STING; assay: IRF3 phosphorylation; type: cell-based; details: 100 μM, 2 h; HepG2/STING vs HepG2/STINGΔC cells
[8] = tested on: THF cells; assay: Cytotoxicity in THF cells; type: cell-based, human
[9] = tested on: Dengue virus (DENV); type: cell-based, dengue virus (serotype 2, New Guinea C strain); details: THF cells pre-treated 8 h
[10] = tested on: Yellow fever virus (YFV); type: cell-based, Yellow fever virus (17D strain); details: THF cells pre-treated 8 h
[11] = tested on: Zika virus (ZIKV); assay: Antiviral assay, pre-treated THF cells infected with ZIKV; type: cell-based, Zika virus (PRVABC59 strain); details: THF cells pre-treated 8 h
[12] = tested on: PBMC-derived dendritic cells; assay: CD80 expression by flow cytometry in PBMC-derived dendritic cells; type: cell-based, human; details: BNBC 50 μM or LPS 10 μg/ml, 48 h; gated from CD11c+ cells
[13] = Aqueous solubility in PBS; type: physicochemical
[14] = Metabolic stability in human liver microsomes; type: in vitro ADME
[15] = Metabolic stability in mouse liver microsomes; type: in vitro ADME
[16] = Caco-2 permeability; type: in vitro ADME; details: human
[17] = tested on: cytochrome P450 (Cyp) enzymes (CYP1A2, 2A6, 2B6, 2C8, 2C9, 2C19, 2D6, CYP2E1 and 3A4); assay: Cytochrome P450 inhibition panel; type: in vitro ADME; details: inhibition = greater than 50% inhibition at 10 μM
[18] = Plasma protein binding, human; type: in vitro ADME
[19] = Plasma protein binding, mouse; type: in vitro ADME
[20] = tested on: THF cells; assay: Cytokine response
[21] = tested on: human PBMCs; assay: Cytokine mRNA induction; details: 6 h, qRT-PCR
[22] = tested on: PBMC-derived dendritic cells; assay: Cytokine mRNA induction; details: BNBC 100 μM or LPS 10 μg/ml, 6 h
[23] = MOI 0.1, 48 h, qRT-PCR, maximal reduction

T1 sequence (Q86WV6 whole entry): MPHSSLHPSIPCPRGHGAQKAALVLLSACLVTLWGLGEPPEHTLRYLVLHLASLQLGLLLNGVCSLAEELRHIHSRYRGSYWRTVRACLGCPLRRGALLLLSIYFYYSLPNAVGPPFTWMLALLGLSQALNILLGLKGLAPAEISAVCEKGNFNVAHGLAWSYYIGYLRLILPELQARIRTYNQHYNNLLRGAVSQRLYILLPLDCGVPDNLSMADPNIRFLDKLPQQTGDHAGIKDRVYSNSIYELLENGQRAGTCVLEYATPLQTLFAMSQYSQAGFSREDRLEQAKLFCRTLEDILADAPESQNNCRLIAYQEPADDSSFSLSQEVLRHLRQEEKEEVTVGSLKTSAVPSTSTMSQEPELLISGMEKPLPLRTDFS
Chain of human STING with truncation of carboxyl-terminal domain (CTD) (Q86WV6 1-340 limits assumed): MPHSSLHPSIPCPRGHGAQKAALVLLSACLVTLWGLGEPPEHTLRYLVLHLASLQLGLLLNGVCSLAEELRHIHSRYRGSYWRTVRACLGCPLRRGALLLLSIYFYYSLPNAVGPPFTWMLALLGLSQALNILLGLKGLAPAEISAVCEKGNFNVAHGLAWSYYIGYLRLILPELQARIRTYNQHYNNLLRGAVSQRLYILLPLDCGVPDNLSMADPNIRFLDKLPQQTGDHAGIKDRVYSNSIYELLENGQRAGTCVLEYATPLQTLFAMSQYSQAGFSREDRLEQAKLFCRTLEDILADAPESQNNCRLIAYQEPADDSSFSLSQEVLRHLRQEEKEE

Compound: O=C(Nc1cccc2ccccc12)c1cc2c(cc1Br)OCO2 [BNBC, 6-bromo-N-(naphthalen-1-yl)benzo[d][1,3]dioxole-5-carboxamide]
- Induction of ISG54 promoter-driven luciferase expression ([1]; HepG2/STING/ISG54 reporter cells lacking cGAS): concentration-dependently induced ISG54 driven luciferase expression
- MinEC5X ([1]; Minimum Effective Concentration to induce 5-fold luciferase activity relative to mock-treated control, HepG2/STING/ISG54Luc cells, 4 h): 2.2 µM
- Maximum induction (fold) ([1]; maximum fold of luciferase induction, HepG2/STING/ISG54Luc cells, 4 h): 20.5 fold
- Induction of ISG54-driven luciferase expression [2]: induced luciferase expression in a concentration-dependent manner
- Induction of ISG54-driven luciferase expression [3]: did not induce luciferase expression
- Cytotoxicity: concentration up to which no cytotoxicity was detected [4]: > 200 µM
- Induction of IFN-β, IL29 (IFN-λ1) and TNF-α mRNA expression ([5]; HepG2/STING cells): concentration-dependently induced IFN-β, IL29 (IFN-λ1) and TNF-α mRNA expression
- Induction of IFN-β mRNA expression [6]: not in parental HepG2 cells, HepG2/STINGΔC cells and HepG2-derived cell line expressing mouse STING (HepG2/mSTING)
- IRF3 phosphorylation and nuclear translocation [7]: only induced IRF3 phosphorylation and nuclear translocation in HepG2/STING cells
- Cytotoxicity [8]: absence of cytotoxicity
- Reduction of intracellular DENV RNA level [9, 23]: up to 90 fold
- Reduction of intracellular YFV RNA level [10, 23]: ≤ 150 fold
- Reduction of intracellular ZIKV RNA level [11, 23]: ≤ 800 fold
- Induction of CD80 expression [12]: significantly induced expression of CD80
- solubility ([13]; pH 4, aqueous buffer): 3.57 µM (≈ 1.32 µg/mL)
- solubility ([13]; pH 7.4, aqueous buffer): 2.62 µM (≈ 0.97 µg/mL)
- half-life [14]: 20 min
- half-life [15]: 2.21 min
- Papp A→B [16]: 14.5 ×10⁻⁶ cm/s
- Papp B→A [16]: 5.98 ×10⁻⁶ cm/s
- efflux ratio [16]: 0.41
- Cyp IC50 < 10 μM (number of Cyps/reactions inhibited out of 10) [17]: 5 out of 10 and 5/10
- fraction unbound [18]: 0.0266
- fraction unbound [19]: 0.0212
- Effect of STING knockout on compound-induced IFN-β mRNA expression ([20]; THF cells with knockout of STING, but not TRIF or IPS-1 (MAVS), 50 μM, 6 h): completely abolished
- Induction of cytokine mRNA and IFN-β secretion ([20]; THF cells, mRNA 6 h, ELISA 18 h): concentration-dependently induced IFN-β, IL-28A and IL-6 mRNA expression as well as secretion of IFN-β into culture media
- Induction of cytokine expression [21]: efficiently induced expression of type I and type III IFN, but to a lesser extent, TNF-α
- Induction of cytokine mRNAs [22]: efficiently induced the expression of IFN-β and IL-29 mRNAs and to a lesser extent, TNF-α and IL-6 mRNAs

Compound: Cc1ccc2c(=O)c3cccc(CC(=O)O)c3oc2c1C [DMXAA, 5’,6’-dimethylxanthenone-4-acetic acid, reference compound]
- Induction of IFN-β mRNA expression ([5]; HepG2/STING cells expressing human STING): not in HepG2/STING cells

Compound: O=C(NCc1ccco1)c1ccc2c(c1)N(Cc1c(F)cccc1Cl)C(=O)CS2 [G10, reference compound]
- Reduction of DENV RNA ([9]; compared with BNBC): reduced virial RNAs in similar potencies
- Reduction of YFV RNA ([10]; compared with BNBC): reduced virial RNAs in similar potencies
- Reduction of ZIKV RNA ([11]; compared with BNBC): reduced virial RNAs in similar potencies

Compound: Lipopolysaccharides [LPS, reference compound]
- Induction of CD80 expression [12]: significantly induced expression of CD80
- Induction of cytokine mRNAs [22]: efficiently induced the expression of IFN-β and IL-29 mRNAs and to a lesser extent, TNF-α and IL-6 mRNAs

Source: paper PMC7082846 (ACS infectious diseases, 2019)
